Data published in patent US20230174975A1 (priority 2020, published 2023).
Counter-ions that a name gives are not always drawn. Like-named read-outs stand apart in the source and are kept apart here.

Tests used:
229E virus = assay: organism not typed; assay type: cell-based, human 229E coronavirus; conditions: for combination effect with Camostat mesylate (in words) / combination effect with IFNα 4b (in words) / inhibition of virus replication: PAC-MAN with the guide; for inhibition of virus replication: no drug, 24 hpi, vs NT6
229E [1] = assay type: cell-based, human 229E coronavirus
229E [2] = assay type: cell-based, human 229E coronavirus; remark: listed apart in the source
SARS-CoV-2 = assay type: cell-based; conditions: supernatant test, SARS-CoV-2 MOI=0.01
[3] = tested on: transmembrane protease, serine 2 (TMPRSS2); assay: Knockdown of endogenous gene in A549 cells by Cas13d and crRNAs (qPCR); assay type: cell-based, human; conditions: 3 days
[4] = tested on: methylenetetrahydrofolate dehydrogenase 1 (MTHFD1); assay: as above; assay type: cell-based, human; conditions: 3 days
[5] = single agent alone, vs control (NT)

CN(C)C(=O)COC(=O)Cc1ccc(OC(=O)c2ccc(NC(=N)N)cc2)cc1 [Camostat mesylate, reference compound]
EC50 (229E virus): ~500 µM
combination effect of the drug with PAC-MAN (in words) (229E virus): synergistic effects
fold decrease of virus titer (229E virus; [5]): 2.4 fold
cytotoxicity: no obvious cytotoxicity

N20: crRNA tested against live SARS-CoV-2 in Cas13d VeroE6 cells; best crRNA of that screen (guide ACUUCAUCAAUUAUGUCAGUUU; chemistry not given here)
inhibition of virus replication (229E [1]; guide screening, MRC-5 cells, viral titer in supernatant by RT-qPCR (FIG. 11)): 95%
protection of cells from death by 229E infection (in words) (229E [2]; 229E MOI 0.01, up to 5 day infection): protected the cells from death
protection of cells from death at different MOIs (in words) (229E [2]; 229E MOI up to 1.0 (FIG. 21A)): protected the cells from death
combination effect with Camostat mesylate (in words) (229E virus): promising synergistic effect
combination effect with IFNα 4b (in words) (229E virus): additive effect
fold decrease of virus titer (229E virus; PAC-MAN with the guide combined with IFNα 4b, vs NT): 10.1 fold
inhibition of virus replication (229E virus): 84%
fold decrease of virus titer (229E virus; [5]): 6.2 fold
repression efficiency (viral RNA load) (SARS-CoV-2): 96%

R19: crRNA targeting SARS-CoV-2 RdRP sequence (Table 8); not 229E crR19 (guide CACCATCGTAACAATCAAAGTA; chemistry not given here)
combination effect with Camostat mesylate (in words) (229E virus): promising synergistic effect
combination effect with IFNα 4b (in words) (229E virus): minus effect
inhibition of virus replication (229E virus): 50%

SEQ ID NO: 13605: crRNA targeting endogenous gene TMPRSS2 (guide TACAGCGTAAAGAAACCACTGCT; chemistry not fully specified)
knockdown of TMPRSS2 mRNA (in words) [3]: efficiently knocked down

SEQ ID NO: 13606: crRNA targeting endogenous gene MTHFD1 (guide CAATATCATAAAAACAGGGCCGG; chemistry not fully specified)
knockdown of MTHFD1 mRNA (in words) [4]: efficiently knocked down

crN1: crRNA (guide) targeting N gene of human 229E coronavirus; not N1 of Table 9 (guide AGCCCAUUUGACUGUAGCCAUC; chemistry not given here)
inhibition of virus replication (229E [1]): about 80%
cells alive (229E [2]): more than 90%

crR8: crRNA (guide) targeting RdRP of human 229E coronavirus (guide AAUCUUUAAUUGCAGCAUCACC; chemistry not given here)
inhibition of virus replication (229E [1]): about 80%

crR19: crRNA (guide) targeting RdRP of human 229E coronavirus; not R19 of Table 9 (guide CCAGCAGAAAUAAUACGGCUAG; chemistry not given here)
inhibition of virus replication (229E [1]): about 80%
